Laboratory results as given in ChEMBL document CHEMBL1156945, “Discovery of a novel selective PPARgamma modulator from (-)-Cercosporamide derivatives” (Bioorg Med Chem Lett, 2010).
Calls of active or inactive are those of the source. The rule behind the calls is not given here.

Tests used:
[1] = molecular target: T1, Peroxisome proliferator-activated receptor gamma (Homo sapiens, UniProt P37231)
T1 sequence (P37231 whole entry): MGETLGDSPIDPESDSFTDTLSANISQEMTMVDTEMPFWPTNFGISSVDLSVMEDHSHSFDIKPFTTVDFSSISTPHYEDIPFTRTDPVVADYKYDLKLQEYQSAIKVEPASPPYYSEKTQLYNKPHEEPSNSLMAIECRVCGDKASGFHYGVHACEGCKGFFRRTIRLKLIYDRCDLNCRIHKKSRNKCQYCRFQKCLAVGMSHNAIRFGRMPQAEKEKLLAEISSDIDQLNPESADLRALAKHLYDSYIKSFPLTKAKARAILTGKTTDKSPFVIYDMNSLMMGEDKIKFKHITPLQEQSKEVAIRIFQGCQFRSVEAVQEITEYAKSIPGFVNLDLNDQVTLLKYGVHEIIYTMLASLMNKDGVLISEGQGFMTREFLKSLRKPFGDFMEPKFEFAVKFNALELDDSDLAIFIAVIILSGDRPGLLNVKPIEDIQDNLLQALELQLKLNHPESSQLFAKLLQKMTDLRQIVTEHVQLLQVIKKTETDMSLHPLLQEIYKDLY
Description: (§1) Agonist activity at PPARgamma assessed as transcriptional activation

[2] = species: Mus musculus; assay: Antihyperglycemic activity in KK/Ta mouse assessed as reduction in plasma glucose level at 0.01% in diet relative to control; type: functional; parameters: scale not given: the % may be the effect or the level left
[3] = species: Mus musculus; assay: Antihyperglycemic activity in KK/Ta mouse assessed as reduction in body weight at 0.01% in diet after 7 days relative to control; type: functional; parameters: scale not given: the % may be the effect or the level left
[4] = species: Mus musculus; assay: Antihyperglycemic activity in KK/Ta mouse assessed as reduction in food intake at 0.01% in diet after 7 days relative to control; type: functional; parameters: scale not given: the % may be the effect or the level left
[5] = molecular target: T1, Peroxisome proliferator-activated receptor gamma; assay: Binding affinity to PPARgamma
[6] = molecular target: T2, Peroxisome proliferator-activated receptor alpha (Homo sapiens) (UniProt Q07869); assay: Agonist activity at PPARalpha by transactivation assay; type: functional
T2 sequence (whole entry): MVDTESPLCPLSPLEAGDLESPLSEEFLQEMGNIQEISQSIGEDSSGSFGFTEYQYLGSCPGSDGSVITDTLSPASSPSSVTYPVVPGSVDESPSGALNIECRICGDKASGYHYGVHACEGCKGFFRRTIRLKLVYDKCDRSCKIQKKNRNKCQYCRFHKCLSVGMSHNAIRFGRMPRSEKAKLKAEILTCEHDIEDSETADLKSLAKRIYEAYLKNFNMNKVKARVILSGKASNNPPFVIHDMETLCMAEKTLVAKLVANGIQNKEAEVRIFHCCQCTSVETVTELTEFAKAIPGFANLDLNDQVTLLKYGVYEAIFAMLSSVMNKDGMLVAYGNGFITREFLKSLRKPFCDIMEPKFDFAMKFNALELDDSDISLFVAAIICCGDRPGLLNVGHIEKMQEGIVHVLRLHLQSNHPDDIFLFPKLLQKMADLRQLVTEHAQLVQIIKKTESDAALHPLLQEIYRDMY

[7] = molecular target: T3, Peroxisome proliferator-activated receptor delta (Homo sapiens) (UniProt Q03181); assay: Agonist activity at PPARdelta by transactivation assay; type: functional
T3 sequence (whole entry): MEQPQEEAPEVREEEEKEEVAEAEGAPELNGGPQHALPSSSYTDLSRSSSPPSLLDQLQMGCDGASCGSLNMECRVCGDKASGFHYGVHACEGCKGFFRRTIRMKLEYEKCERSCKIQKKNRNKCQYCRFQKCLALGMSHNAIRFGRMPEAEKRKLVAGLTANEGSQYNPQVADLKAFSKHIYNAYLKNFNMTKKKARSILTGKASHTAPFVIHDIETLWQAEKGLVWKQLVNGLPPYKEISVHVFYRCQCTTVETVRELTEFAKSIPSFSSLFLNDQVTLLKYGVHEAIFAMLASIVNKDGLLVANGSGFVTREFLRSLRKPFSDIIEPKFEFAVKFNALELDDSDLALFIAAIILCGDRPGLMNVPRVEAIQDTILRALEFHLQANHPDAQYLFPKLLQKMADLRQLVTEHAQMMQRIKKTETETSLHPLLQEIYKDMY

[8] = tested on: Mus musculus; assay: Toxicity in db/db mouse assessed as heart weight administered at 0.01% in diet (Rvb=102+/-4.8 mg); type: organism-based; details: in vivo, po
[9] = tested on: Mus musculus; assay: Toxicity in db/db mouse assessed as heart weight administered at 0.1% in diet (Rvb=102+/-4.8 mg); type: organism-based; details: in vivo, po
[10] = molecular target: T1, Peroxisome proliferator-activated receptor gamma; assay: Inhibition of PPARgamma assessed as transcriptional activity
[11] = molecular target: T1, Peroxisome proliferator-activated receptor gamma; remark: listed apart in the source
Description: as §1

Compound	EC50 [1]	further results
COC1Oc2cc(O)c3c(c2C(=O)N1C(=O)NCc1ccoc1)OC1=CC(O)=C(C(C)=O)C(=O)[C@]13C (stereo partly drawn)	3.2 µM	–
COC1Oc2cc(O)c3c(c2C(=O)N1C(=O)NCc1ccc(Cl)cc1)OC1=CC(O)=C(C(C)=O)C(=O)[C@]13C (stereo partly drawn)	0.77 µM	–
COC1Oc2cc(O)c3c(c2C(=O)N1C(=O)NCc1ccc([N+](=O)[O-])cc1)OC1=CC(O)=C(C(C)=O)C(=O)[C@]13C (stereo partly drawn)	6 µM	–
COC1Oc2cc(O)c3c(c2C(=O)N1C(=O)NCc1ccccc1[N+](=O)[O-])OC1=CC(O)=C(C(C)=O)C(=O)[C@]13C (stereo partly drawn)	1.6 µM	–
COC1Oc2cc(O)c3c(c2C(=O)N1C(=O)NCc1cc2ccccc2s1)OC1=CC(O)=C(C(C)=O)C(=O)[C@]13C (stereo partly drawn)	3.8 µM	–
COc1ccc(CNC(=O)N2C(=O)c3c(cc(O)c4c3OC3=CC(O)=C(C(C)=O)C(=O)[C@]34C)OC2OC)cc1 (stereo partly drawn)	1.7 µM	–
COc1cc(O)c2c(c1C(=O)NCc1ccccc1)OC1=CC(O)=C(C(C)=O)C(=O)[C@]12C	0.22 µM	Activity [2]: 69%; Activity [3]: 101%; Activity [4]: 100%
COC1Oc2cc(O)c3c(c2C(=O)N1C(=O)NCc1cccnc1)OC1=CC(O)=C(C(C)=O)C(=O)[C@]13C (stereo partly drawn)	11 µM	–
COC1Oc2cc(O)c3c(c2C(=O)N1C(=O)NCc1cc2ccccc2o1)OC1=CC(O)=C(C(C)=O)C(=O)[C@]13C (stereo partly drawn)	2.3 µM	–
COC1Oc2cc(O)c3c(c2C(=O)N1C(=O)NCc1cccc2ccccc12)OC1=CC(O)=C(C(C)=O)C(=O)[C@]13C (stereo partly drawn)	0.18 µM	Ki [5]: 0.082 µM; Activity [6]: inactive; Activity [7]: inactive; Activity [8]: 102.8 mg; Activity [9]: 103.8 mg
COC1Oc2cc(O)c3c(c2C(=O)N1C(=O)NCc1ccco1)OC1=CC(O)=C(C(C)=O)C(=O)[C@]13C (stereo partly drawn)	0.56 µM	IC50 [10]: 13 µM
COC1Oc2cc(O)c3c(c2C(=O)N1C(=O)NCc1ccccc1Cl)OC1=CC(O)=C(C(C)=O)C(=O)[C@]13C (stereo partly drawn)	0.28 µM	–
CC(=O)C1=C(O)C=C2Oc3c4c(cc(O)c3[C@]2(C)C1=O)OC(C)(C)NC4=O	–	Activity [2]: 56%; Activity [3]: 102%; Activity [4]: 78%
COc1cccc(CNC(=O)N2C(=O)c3c(cc(O)c4c3OC3=CC(O)=C(C(C)=O)C(=O)[C@]34C)OC2OC)c1 (stereo partly drawn)	3.8 µM	–
COC1Oc2cc(O)c3c(c2C(=O)N1C(=O)NCc1cccc(Cl)c1)OC1=CC(O)=C(C(C)=O)C(=O)[C@]13C (stereo partly drawn)	6.7 µM	–
COC1Oc2cc(O)c3c(c2C(=O)N1C(=O)NCc1ccccn1)OC1=CC(O)=C(C(C)=O)C(=O)[C@]13C (stereo partly drawn)	–	EC50 [11]: Not Active
COC1Oc2cc(O)c3c(c2C(=O)N1C(=O)NCc1cccc([N+](=O)[O-])c1)OC1=CC(O)=C(C(C)=O)C(=O)[C@]13C (stereo partly drawn)	2.4 µM	–
COC1Oc2cc(O)c3c(c2C(=O)N1C(=O)NCc1ccsc1)OC1=CC(O)=C(C(C)=O)C(=O)[C@]13C (stereo partly drawn)	4.4 µM	–
CC(=O)C1=C(O)C=C2Oc3c4c(cc(O)c3[C@]2(C)C1=O)OC(C)(C)N(Cc1ccccc1)C4=O	–	Activity [2]: 55%; Activity [3]: 103%; Activity [4]: 74%
COC1Oc2cc(O)c3c(c2C(=O)N1C(=O)NCc1cccs1)OC1=CC(O)=C(C(C)=O)C(=O)[C@]13C (stereo partly drawn)	1.2 µM	–
